Biological target: T1, human PAH with the R408W mutation (Homo sapiens, UniProt P00439, R408W)
T1 construct: expressed in transfected cells
T1 sequence (P00439 1-452 R408W): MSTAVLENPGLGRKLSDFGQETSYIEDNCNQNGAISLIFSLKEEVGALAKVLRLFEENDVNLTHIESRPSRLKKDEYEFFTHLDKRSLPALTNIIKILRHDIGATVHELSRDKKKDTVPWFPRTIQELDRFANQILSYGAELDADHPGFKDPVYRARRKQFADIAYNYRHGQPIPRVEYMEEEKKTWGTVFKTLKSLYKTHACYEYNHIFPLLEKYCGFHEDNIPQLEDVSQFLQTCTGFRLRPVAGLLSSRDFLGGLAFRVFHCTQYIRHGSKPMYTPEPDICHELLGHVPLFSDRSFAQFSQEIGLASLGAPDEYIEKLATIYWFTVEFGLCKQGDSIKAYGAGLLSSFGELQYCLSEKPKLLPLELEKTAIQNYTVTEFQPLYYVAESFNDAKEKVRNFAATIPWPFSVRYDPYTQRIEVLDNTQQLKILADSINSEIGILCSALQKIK
Assay: Cell Based Phenylalanine Flux Assay;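 further: Ten-point dose curve from 2-fold serial dilutions, run in duplicate at 0.5% DMSO final, tracer step used 20 µM sepiapterin and 800 µM labeled phenylalanine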
Details: A375 cells expressing human R408W PAH; 24 hrs with compound, then sepiapterin and 13C9,15N-Phenylalanine for 4 hours; 13C-Tyrosine by LC-MS; average where tested multiple times; read-out: AC50

AC50 [nM] | SMILES
< 500 | Cc1cnn(C)c1-c1nnc(C(=O)N2CCc3[nH]cnc3[C@H]2c2cc3c(C(F)F)cccn3n2)o1 [Example 1568, (S)-(4-(4-(difluoromethyl)pyrazolo[1,5-a]pyridin-2-yl)-6,7-dihydro-1H-imidazo [4,5-c]pyridin-5(4H)-yl)(5-(1,4-dimethyl-1H-pyrazol-5-yl)-1,3,4-oxadiazol-2-yl)methanone]
500 to 1000 | c1ccc2oc(N3CCc4[nH]cnc4[C@H]3c3cc4ccccn4n3)nc2c1 [Example 1577, (S)-2-(4-(pyrazolo[1,5-a]pyridin-2-yl)-6,7-dihydro-1H-imidazo[4,5-c]pyridin-5(4H)-yl)benzo[d]oxazole]
1000 to 5000 | O=C(c1nnc(C2CC(F)(F)C2)o1)N1CCc2[nH]cnc2[C@@H]1c1cc2c(Cl)cccn2n1 [Example 1586, (R)-(4-(4-chloropyrazolo [1,5-a]pyridin-2-yl)-6,7-dihydro-1H-imidazo [4,5-c]pyridin-5(4H)-yl)(5-(3,3-difluorocyclobutyl)-1,3,4-oxadiazol-2-yl)methanone]
< 500 | O=C(c1nnc(C2CC(F)(F)C2)o1)N1CCc2[nH]cnc2[C@H]1c1cc2c(Cl)cccn2n1 [Example 1587, (S)-(4-(4-chloropyrazolo [1,5-a]pyridin-2-yl)-6,7-dihydro-1H-imidazo[4,5-c]pyridin-5(4H)-yl)(5-(3,3-difluorocyclobutyl)-1,3,4-oxadiazol-2-yl)methanone]
500 to 1000 | FC(F)(F)c1cccn2nc([C@@H]3c4nc[nH]c4CCN3c3nnc(C4CC4)o3)cc12 [Example 1591, (S)-2-cyclopropyl-5-(4-(4-(trifluoromethyl)pyrazolo[1,5-a]pyridin-2-yl)-6,7-dihydro-1H-imidazo[4,5-c]pyridin-5(4H)-yl)-1,3,4-oxadiazole]
1000 to 5000 | Clc1cccn2nc([C@H]3c4nc[nH]c4CCN3c3nnc(-c4ccccn4)o3)cc12 [Example 1622, (R)-2-(4-(4-chloropyrazolo [1,5-a]pyridin-2-yl)-6,7-dihydro-1H-imidazo[4,5-c]pyridin-5(4H)-yl)-5-(pyridin-2-yl)-1,3,4-oxadiazole]
> 5000 | FC(F)c1cccc2cc([C@H]3c4nc[nH]c4CCN3c3nnc(-c4ccccn4)o3)nn12 [Example 1627, (R)-2-(4-(7-(difluoromethyl)pyrazolo[1,5-a]pyridin-2-yl)-6,7-dihydro-1H-imidazo [4,5-c]pyridin-5(4H)-yl)-5-(pyridin-2-yl)-1,3,4-oxadiazole]
500 to 1000 | COCc1ccc2c(C(=O)N3CCc4[nH]cnc4[C@H]3c3cc4c(F)cccn4n3)cnn2c1 [Example 1628, (4-(4-fluoropyrazolo[1,5-a]pyridin-2-yl)-6,7-dihydro-1H-imidazo[4,5-c]pyridin-5(4H)-yl)(6-(methoxymethyl)pyrazolo[1,5-a]pyridin-3-yl)methanone]
500 to 1000 | Clc1cccc2cc([C@@H]3c4nc[nH]c4CCN3c3nnc(-c4ccccn4)o3)nn12 [Example 1639, (S)-2-(4-(7-chloropyrazolo [1,5-a]pyridin-2-yl)-6,7-dihydro-1H-imidazo[4,5-c]pyridin-5(4H)-yl)-5-(pyridin-2-yl)-1,3,4-oxadiazole]
> 5000 | Cc1cccc2cc([C@H]3c4nc[nH]c4CCN3c3nnc(-c4ccccn4)o3)nn12 [Example 1641, (R)-2-(4-(7-methylpyrazolo [1,5-a]pyridin-2-yl)-6,7-dihydro-1H-imidazo[4,5-c]pyridin-5(4H)-yl)-5-(pyridin-2-yl)-1,3,4-oxadiazole]
500 to 1000 | COCc1ccc2c(C(=O)N3CCc4[nH]cnc4[C@H]3c3cc4c(Cl)cccn4n3)cnn2c1 [Example 1650, (S)-(4-(4-chloropyrazolo [1,5-a]pyridin-2-yl)-6,7-dihydro-1H-imidazo [4,5-c]pyridin-5(4H)-yl)(6-(methoxymethyl)pyrazolo [1,5-a]pyridin-3-yl)methanone]
500 to 1000 | Cc1ccc2c(C(=O)N3CCc4[nH]cnc4[C@H]3c3cc4c(C(F)(F)F)cccn4n3)cnn2c1 [Example 1666, (S)-(6-methylpyrazolo [1,5-a]pyridin-3-yl)(4-(4-(trifluoromethyl)pyrazolo [1,5-a]pyridin-2-yl)-6,7-dihydro-1H-imidazo[4,5-c]pyridin-5(4H)-yl)methanone]
500 to 1000 | Cc1ccc2c(C(=O)N3CCc4[nH]cnc4[C@H]3c3cc4c(C)cccn4n3)cnn2c1 [Example 1668, (S)-(4-(4-methylpyrazolo [1,5-a]pyridin-2-yl)-6,7-dihydro-1H-imidazo [4,5-c]pyridin-5(4H)-yl)(6-methylpyrazolo[1,5-a]pyridin-3-yl)methanone]
> 5000 | O=C(c1cnn2cc(C3CC3)ccc12)N1CCc2[nH]cnc2[C@@H]1c1cc2c(F)cccn2n1 [Example 1673, (R)-(6-cyclopropylpyrazolo [1,5-a]pyridin-3-yl)(4-(4-fluoropyrazolo[1,5-a]pyridin-2-yl)-6,7-dihydro-1H-imidazo[4,5-c]pyridin-5(4H)-yl)methanone]
< 500 | Cc1c(-c2nnc(C(=O)N3CCc4[nH]cnc4[C@H]3c3cc4c(OC(F)(F)F)cccn4n3)o2)cnn1C [Example 1684, (S)-(5-(1,5-dimethyl-1H-pyrazol-4-yl)-1,3,4-oxadiazol-2-yl)-(4-(4-(trifluoromethoxy)pyrazolo[1,5-a]pyridin-2-yl)-6,7-dihydro-1H-imidazo [4,5-c]pyridin-5(4H)-yl)methanone]
500 to 1000 | Cc1ccc2c(C(=O)N3CCc4[nH]cnc4[C@H]3c3cc4c(C(F)F)cccn4n3)cnn2c1 [Example 1712, (S)-(4-(4-(difluoromethyl)pyrazolo[1,5-a]pyridin-2-yl)-6,7-dihydro-1H-imidazo [4,5-c]pyridin-5(4H)-yl)(6-methylpyrazolo[1,5-a]pyridin-3-yl)methanone]
> 5000 | O=C(c1cnn2cc(C3CC3)ccc12)N1CCc2[nH]cnc2[C@@H]1c1cc2c(C(F)(F)F)cccn2n1 [Example 1717, (R)-(6-cyclopropylpyrazolo [1,5-a]pyridin-3-yl)(4-(4-(trifluoromethyl)pyrazolo [1,5-a]pyridin-2-yl)-6,7-dihydro-1H-imidazo[4,5-c]pyridin-5(4H)-yl)methanone]
< 500 | O=C(c1nnc(C2CC2)o1)N1CCc2[nH]cnc2[C@H]1c1cc2c(OC(F)(F)F)cccn2n1 [Example 1724, (S)-(5-cyclopropyl-1,3,4-oxadiazol-2-yl)(4-(4-(trifluoromethoxy)pyrazolo [1,5-a]pyridin-2-yl)-6,7-dihydro-1H-imidazo[4,5-c]pyridin-5(4H)-yl)methanone]
< 500 | CN(C)c1ccc2c(C(=O)N3CCc4[nH]cnc4[C@H]3c3cc4c(C(F)(F)F)cccn4n3)cnn2c1 [Example 1746, (S)-(6-(dimethylamino)pyrazolo[1,5-a]pyridin-3-yl)(4-(4-(trifluoromethyl)pyrazolo [1,5-a]pyridin-2-yl)-6,7-dihydro-1H-imidazo[4,5-c]pyridin-5(4H)-yl)methanone]

SMILES | AC50 [nM]
c1cnc(N2CCc3[nH]cnc3[C@H]2c2cc3ccccn3n2)nc1 [Example 1592, (S)-4-(pyrazolo[1,5-a]pyridin-2-yl)-5-(pyrimidin-2-yl)-4,5,6,7-tetrahydro-1H-imidazo[4,5-c]pyridine] | 500 to 1000
FC(F)(F)c1cccn2nc([C@H]3c4nc[nH]c4CCN3c3ncccn3)cc12 [Example 1693, (R)-5-(pyrimidin-2-yl)-4-(4-(trifluoromethyl)pyrazolo [1,5-a]pyridin-2-yl)-4,5,6,7-tetrahydro-1H-imidazo [4,5-c]pyridine] | 1000 to 5000

From patent publication US12673961B2 (Agios Pharmaceuticals, Inc., priority 2022, dated 2026)
